US8008074B2, “Compositions and methods for improving bone mass through modulation of receptors of PTH and fragments thereof” (The UAB Research Foundation, priority 2006, dated 2011)
One block for each substance: values may come before it.

Experiments:
[1] = test system: Wnt responsive luciferase reporter (TCF4-Luc); assay: TCF4-Luc luciferase reporter assay in UMR 106 cells; format: cell-based
LRP6/Axin binding = assay: Axin-LRP6 binding immunoprecipitation assay; format: cell-based; settings: HEK 293 cells cotransfected with LRP6, Axin and GSK3β; ligand for 1 hour
β-catenin in osteoblasts [2] = assay: β-catenin immunostaining of trabecular bone in mice, 28 days PTH; format: in vivo, mouse; settings: for percentage of β-catenin positive osteoblasts: 28 days
Excerpt: (§1) Immunohistochemical staining of representative sections with antibody against β-catenin at 10× objective and 40× objective counterstained with hematoxylin from either primary spongliosa subjacent to the epiphyseal growth plates or Spongiosa subjacent to diaphyseal hematopoietic bone marrow of different time points after PTH single injection in rats. […] Each value is the mean±SEM of determinations in three independent slides of each animal and three animals of each group. Panels B and C show graphs of the expression of MPK1 mRNA and the ratio of RANKL/OPG as quantified by real-time PCR in cavaria tissue from the same animals. Panel D—Immunohistochemical β-catenin staining of representative sections were counterstained with hematoxylin from metaphyseal area of distal femurs of mice at six weeks of age. (i) vehicle control daily injection for 28 days; (ii) hPTH (1-34) 100 ng/g. b.w daily injection for 28 days; (iii) vehicle control continuous infusion with an osmotic pump; and (iv) hPTH (1-34) continuous infusion at 500 ng/h with an osmotic pump. Panel D is a graph showing the numbers of β-catenin-positive osteoblasts as a percent of total osteoblasts per field that were determined. Each value is the mean±SEM of determinations in three independent slides of each animal and three animals of each group.
(§2) The role of β-catenin in PTH-induced bone formation was then examined. PTH stimulates bone formation when injected daily, i.e. intermittent injection, but causes severe bone loss when infusion continuously. Mice were injected either daily or continuously by infusion with an osmotic pump for 28 days. […] Similar results were obtained in double labeling.

[3] = Bone formation in mice, daily injection or continuous infusion for 28 days; format: in vivo, mouse
Excerpt: as §1, §2

[4] = test system: TGF-β-induced transcription activity; assay: Smad binding response luciferase reporter (SBE-luc) in 293 cells; format: cell-based; settings: TGF-β 2 ng/ml, 50 nM
Method: A Smad binding response luciferase reporter (SBE-luc) was transfected into 293 cells. TGF-β (2 ng/ml) was added in combination with different doses of PTH (1-34) or cPTH (39-84). Twenty-four hours after transfection, the cells were lysed and the luciferase signal was detected. Luciferase values shown in the figures are representative of transfection experiments performed in triplicate in at least three independent experiments. The relative increased fold of the luciferase activity stimulated by TGF-β in each cell line was calculated.
A Smad binding response luciferase reporter (SBE-luc) was introduced into the multi-cloning site of pcDNA3 (Invitrogen), and the resulting vector was transfected into 293 cells using Lipofectamine Plus reagent (Invitrogen, Cat. No. 10964-013). TGF-β (2 ng/ml) was added in combination with different doses of PTH (1-34) (50 nM) or cPTH (39-84) (50 nM). […] Forty-two hours after transfection, the cells were lysed, and the luciferase signal was detected using the Dual Luciferase assay kit (Promega) according to the manufacturer's instructions.
Luciferase values shown in the figures are representative of transfection experiments performed in triplicate in at least three independent experiments. The relative increased fold of the luciferase activity stimulated by TGF-β in each cell line was calculated.

Axin = Axin protein levels; format: cell-based; settings: cells overexpressing LRP6
Excerpt: Binding of Axin to phosphorylated LRP6 leads to rapid degradation. Then inhibition of Axin/LRP6 binding should […] degradation of Axin. Indeed, Axin degradation is reduced by both inhibitors (data not shown). […] PKA and PKC also were examined to determine whether they regulate PTH-induced PTH1R/LRP6 complex formation. […] Apparently, the receptor complex formation is independent of activation of PKA and PKC. Instead, it seems that activation of G protein-mediated PKA and PKC signaling is in parallel with the recruitment of LRP5/6 in PTH signaling. PKA and PKC activity is required for LRP5/6 phosphorylation and Axin/LRP6 binding.
Wnts induce binding of Axin to phosphorylated LRP6, and the membrane-bound Axin undergoes rapid protein dephosphorylation and degradation, which eventually leads to β-catenin stabilization Willert et al., 1999; Yamamoto et al., 1999).

β-catenin in osteoblasts [5] = assay: β-catenin immunostaining of femur and tibia after single PTH injection in rats; format: in vivo, rat
Excerpt: as §1
β-Catenin, activated by either Wnt or TGF signaling, stimulates proliferation of osteoprogenitors and bone formation. […] Therefore, the dynamics of β-catenin levels were determined at various time points after a single dose injection of PTH (1-34) in seven-month-old rats. Sections of femur and tibia were immunostained for HE, trichrome, and β-catenin. The first signs of β-catenin expression in osteoblasts appeared at 2 hours after PTH injection, reached a peak at 8 hours, and decreased at 24 hours. […] Specifically, 99.76% of osteoblasts at primary spongliosa subjacent to the epiphyseal growth plates were β-catenin positive, and 89.91% at spongiosa subjacent to diaphyseal hematopoietic bone marrow were β-catenin positive (FIG. 7A).
To further examine whether LRP5/6 mediates PTH-elevated β-catenin levels in vivo, trabecular bone sections were immunostained with the antibody against phosphorylated PPPSP motif. Formalin-fixed tissue sections of 5 μm thickness were deparaffinized in xylene and rehydrated in graded alcohols. Antigen retrieval was achieved by incubating tissue sections in boiling 10 mmol/L citrate buffer (pH 6.0) for 5 minutes in a microwave oven. All sections were then incubated with hydrogen peroxide for 5 minutes. Subsequently, sections were incubated with the primary antibodies against β-catenin or LRP6 1490 for 1 hour at room temperature. After rinsing the primary antibody in T-PBS, antibody detection was accomplished using the Super Sensitive biotin-streptavidin horseradish peroxidase detection kit (Biogenex, San Ramon, Calif.). The diaminobenzidine tetrachloride Super Sensitive substrate kit (Biogenex, San Ramon, Calif.) was used to visualize the antibody-antigen complex. The sections were then counterstained with hematoxylin. Appropriate negative controls, consisting of tissue sections of each case processed without the addition of primary antibody, were prepared along with positive multitissue control sections. Only those cases with greater than 10% immunohistochemical stains were considered as positive. Assessment of the immunohistochemical staining was performed independently by two pathologists. […]

TGFβ/Smad signaling = TGFβ/Smad signaling after PTH pretreatment; format: cell-based; settings: C2C12 cells; TGFβ stimulation
Method: Panel B is a graph showing the decrease in activity from the SBE-luciferase reporter in the presence of PTH and PTH1R.
It has been reported that TGFβ-induced endocytosis of TGFβ/TβRII is mediated by Sara endosome. The response of TβRII to PTH was analyzed to determine whether it is the same as to TGFβ. […] The observation was confirmed by TGFβ-induced interaction between Smad2 and Smad4.

PTH1R-TβRII interaction = molecular target: T1, PTH1R-TβRII interaction (Homo sapiens, UniProt P37173+Q03431); assay: YFP protein-fragment complementation assay, TβRII-YFP1 and PTH1R-YFP2; format: cell-based; settings: both constructs expressed; plasma membrane
T1 construct: expressed in transfected cells
T1 sequence (Q03431 27-593): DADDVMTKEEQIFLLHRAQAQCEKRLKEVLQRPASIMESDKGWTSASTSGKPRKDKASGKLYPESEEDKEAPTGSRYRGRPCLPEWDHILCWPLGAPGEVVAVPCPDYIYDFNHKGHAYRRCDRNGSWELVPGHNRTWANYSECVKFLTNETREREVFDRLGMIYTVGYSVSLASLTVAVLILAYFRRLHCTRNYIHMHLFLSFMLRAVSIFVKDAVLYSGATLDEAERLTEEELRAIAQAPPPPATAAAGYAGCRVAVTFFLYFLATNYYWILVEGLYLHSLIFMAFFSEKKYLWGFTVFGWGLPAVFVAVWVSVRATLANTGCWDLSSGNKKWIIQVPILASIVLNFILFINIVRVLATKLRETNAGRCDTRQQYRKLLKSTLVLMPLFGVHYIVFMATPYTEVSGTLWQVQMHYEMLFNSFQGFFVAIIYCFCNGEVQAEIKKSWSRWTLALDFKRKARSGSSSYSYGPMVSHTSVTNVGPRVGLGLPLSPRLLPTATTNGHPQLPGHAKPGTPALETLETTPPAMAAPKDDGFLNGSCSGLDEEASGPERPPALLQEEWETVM
T1 sequence (P37173 23-567): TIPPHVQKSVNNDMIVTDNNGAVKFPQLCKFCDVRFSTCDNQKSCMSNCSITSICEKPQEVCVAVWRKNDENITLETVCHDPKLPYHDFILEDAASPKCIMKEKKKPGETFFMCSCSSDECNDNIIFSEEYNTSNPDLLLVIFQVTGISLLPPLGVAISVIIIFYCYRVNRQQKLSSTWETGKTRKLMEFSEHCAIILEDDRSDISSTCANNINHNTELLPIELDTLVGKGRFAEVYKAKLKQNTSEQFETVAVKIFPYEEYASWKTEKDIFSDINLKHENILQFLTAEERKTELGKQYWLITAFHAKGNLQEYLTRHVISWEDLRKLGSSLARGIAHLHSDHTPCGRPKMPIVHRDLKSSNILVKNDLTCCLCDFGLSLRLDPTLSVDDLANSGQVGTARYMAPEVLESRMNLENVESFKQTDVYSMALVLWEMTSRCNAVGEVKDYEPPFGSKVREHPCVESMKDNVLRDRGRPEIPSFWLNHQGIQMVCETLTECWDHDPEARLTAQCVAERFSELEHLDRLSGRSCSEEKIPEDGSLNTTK
Excerpt: A yellow fluorescent protein (YFP)-based protein-fragment complementation assay (PCA) was employed (Remy et al., 2004). YFP1 fragment was fused into the C-terminal of TβRII. YFP2 fragment was fused into the C-terminal of PTH1R. The PCA strategy was to facilitate visualization of the PTH1R-TβRII interaction through reconstituted YFP in living cells when the interaction brings the complementary fragments of the YFP into close proximity.
The PTH^TMR was then employed in the PCA experiment. […] Almost all the reconstituted YFP associated with PTH^TMR. The observation was further confirmed by the immunostaining of TβRII and PTH1R in the PTH^TMR-treated cells. TβRII, PTH1R, and PTH ligand predominantly colocalize into the same cytoplasmic vesicles (data not shown).

[6] = rats, 8 hours after single injection of PTH (1-34)
[7] = seven-month-old rats, single dose injection of PTH (1-34)

- Axin-LRP6 binding (LRP6/Axin binding): stimulated Axin-LRP6 binding
Substance: PTH (1-34): N-terminal fragment of PTH, amino acids 1-34
- TCF luciferase activity ([1]; 5×10^−7 M of indicated PTH ligands for 12 hours): significantly elevated
- activation of TCF4-Luc reporter ([1]; 10^−7M PTH (1-84), 12 hours): activated the TCF4-Luc reporter
- percentage of β-catenin positive osteoblasts (β-catenin in osteoblasts [2]; PTH continuous infusion): 23.54%
- β-catenin in osteoblasts (immunostaining) (β-catenin in osteoblasts [2]; PTH continuous infusion, in comparison with control): reduced the level of β-catenin
- β-catenin in osteoblasts (immunostaining) (β-catenin in osteoblasts [2]; PTH intermittent injection): significantly increased β-catenin in osteoblasts
- percentage of β-catenin positive osteoblasts (β-catenin in osteoblasts [2]; PTH intermittent injection): 96.03%
- levels of β-catenin in osteocytes, osteoclasts, and bone marrow cells (β-catenin in osteoblasts [2]; data not shown): remained barely detectable
- osteoblast proliferation (BrdU labeling) ([3]; PTH continuous infusion): reduced proliferation
- osteoblast proliferation (BrdU labeling) ([3]; PTH daily injection): stimulated
- mineralization in the trabecular and cortical bone matrix (von Kossa) ([3]; PTH intermittent injection, data not shown): increased
- bone mineral density ([3]; continuous infusion with osmotic pump for 28 days (500 ng/h), data not shown): decreased
- bone mineral density ([3]; daily injection for 28 days (100 ng/g b.w), data not shown): significantly increased
- osteoblast numbers per square millimeter tissue area (N. Ob/T.Ar) ([3]; primary spongiosa of femur, data not shown): increased
- effect on TGF-β-induced transcription activity (SBE-luc) [4]: inhibited TGF-β-induced transcription activity
- Axin protein levels (Axin): further downregulated Axin protein levels
- β-catenin positive osteoblasts at primary spongliosa subjacent to the epiphyseal growth plates (β-catenin in osteoblasts [5]; [6]): 99.76%
- β-catenin positive osteoblasts at spongiosa subjacent to diaphyseal hematopoietic bone marrow (β-catenin in osteoblasts [5]; [6]): 89.91%
- first signs of β-catenin expression in osteoblasts after PTH injection (β-catenin in osteoblasts [5]; [7]): 2 h
- peak of β-catenin expression in osteoblasts after PTH injection (β-catenin in osteoblasts [5]; [7]): 8 h
- β-catenin expression in osteoblasts at 24 hours (β-catenin in osteoblasts [5]; seven-month-old rats, single dose injection of PTH (1-34), 24 hours): decreased

- YFP fluorescence from TβRII-YFP1 and PTH1R-YFP2 (PTH1R-TβRII interaction): did not show such an effect
Substance: TGF-β1: TGF-β ligand used as stimulus and comparator
- phosphorylation of Smad2 (TGFβ/Smad signaling): activated
